The values that follow come from PubChem BioAssay (NCI).

Several values for one entry are separate records, joined by “and”; a condition that tells them apart may be missing. Equal entries are not always repeated.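 Step 1: Grow cells in 96-well plates. Step 2: Expose to compound for 48 hours at 5 concentrations. Step 3: Interpolate endpoints linearly; if unreached, use highest concentration. GI50 is the concentration that inhibits growth by half. At the TGI there is no net growth.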

Test systems include UACC-257 melanoma; HT29 colon; MALME-3M melanoma; SF-268 CNS; OVCAR-4 ovarian; MDA-MB-435; M14 melanoma; NCI-H522 lung; RPMI-8226 leukemia; NCI-H226 lung; BT-549 breast; SF-295 CNS; UO-31 renal; NCI-H460 lung; MDA-MB-231 breast; OVCAR-3 ovarian; SF-539 CNS.
Assay in all cases: NCI-60 cell line screen, 48 h

In the case of `CC(C)C(=O)Cc1ccc2ccccc2n1`, the TGI in the assay with UACC-257 melanoma, in the assay with HT29 colon, in the assay with MALME-3M melanoma, in the assay with SF-268 CNS, in the assay with OVCAR-4 ovarian and with MDA-MB-435 was > 100 µM throughout. In addition, the TGI in the assay on M14 melanoma is > 100 µM; with NCI-H522 lung, > 100 µM; in the assay with RPMI-8226 leukemia, 19.9 µM; in the assay on NCI-H226 lung it was > 100 µM; in the assay with BT-549 breast, > 100 µM; in the assay with SF-295 CNS, > 100 µM. Moreover, the TGI in the assay with UO-31 renal, in the assay on NCI-H460 lung, in the assay on MDA-MB-231 breast and in the assay on OVCAR-3 ovarian was > 100 µM throughout.
`O=C(OC1OC2COC(=O)c3cc(O)c(O)c(O)c3-c3c(cc(O)c(O)c3O)C(=O)OC3C2OC(=O)[C@@]24CC(=O)[C@@](O)(OC25C(=O)O[C@H]2[C@@H](O)CO[C@@]25O)C2(O)Oc5c(O)c(O)cc(c5C24)C(=O)OC13)c1cc(O)c(O)c(O)c1` (stereo not given in full): the TGI with UACC-257 melanoma is > 100 µM; in the assay on HT29 colon, > 100 µM; in the assay with MALME-3M melanoma it was > 100 µM; in the assay on SF-268 CNS, > 100 µM; in the assay on OVCAR-4 ovarian, > 100 µM; in the assay with MDA-MB-435, 33 µM. The TGI in the assay with M14 melanoma is > 100 µM; in the assay with NCI-H522 lung, 88 µM; with RPMI-8226 leukemia, > 100 µM; with NCI-H226 lung, > 100 µM; in the assay with BT-549 breast, > 100 µM; in the assay with SF-295 CNS, > 100 µM. The TGI in the assay on UO-31 renal was > 100 µM; with NCI-H460 lung, > 100 µM; in the assay with MDA-MB-231 breast, 18.5 µM; in the assay on OVCAR-3 ovarian it was > 100 µM.
For `COc1cc2c(cc1OCCCOc1cc3c(cc1OC)C(=O)N1CCC[C@H]1C(=O)N3)N=C[C@@H]1CCCN1C2=O`, the TGI is 50 µM in the assay on UACC-257 melanoma; 35.4 µM in the assay with HT29 colon; 29.8 µM in the assay on MALME-3M melanoma; > 100 µM in the assay with SF-268 CNS; 42.4 µM in the assay on OVCAR-4 ovarian; 31.5 µM in the assay on MDA-MB-435. The TGI worked out at 55.4 µM in the assay on M14 melanoma; 6.34 µM with NCI-H522 lung; 21.2 µM in the assay with RPMI-8226 leukemia; 35.5 µM in the assay with NCI-H226 lung; 83.3 µM with BT-549 breast; 46.5 µM with SF-295 CNS. Moreover, the TGI with UO-31 renal turned out to be 40.5 µM; in the assay with NCI-H460 lung it was 70.4 µM; in the assay with MDA-MB-231 breast, 44 µM; with OVCAR-3 ovarian, 54 µM.
`O=c1c2sc3ccccc3sc=2c(=O)c2c(Cl)c(Cl)c(Cl)c(Cl)c12`: the TGI in the assay on UACC-257 melanoma, with HT29 colon, with MALME-3M melanoma, with SF-268 CNS, with OVCAR-4 ovarian and with MDA-MB-435 was > 100 µM in each case. Moreover, the TGI in the assay with M14 melanoma, with NCI-H522 lung, in the assay with RPMI-8226 leukemia, with NCI-H226 lung, in the assay with BT-549 breast and with SF-295 CNS was > 100 µM throughout. Also, the TGI in the assay with UO-31 renal, with NCI-H460 lung, with MDA-MB-231 breast and in the assay on OVCAR-3 ovarian was > 100 µM each time.
For `COC(=O)/C=C1\C(CO[Si](C)(C)C(C)(C)C)OC(n2ccc(=O)[nH]c2=O)C1O` (stereo not given), the TGI with UACC-257 melanoma is > 40.4 µM; in the assay with HT29 colon it was 80.5 µM; with SF-268 CNS, 2.39 µM; in the assay with OVCAR-4 ovarian it was > 100 µM; in the assay with MDA-MB-435, > 43 µM; with M14 melanoma, 49.2 µM. The TGI in the assay on SF-539 CNS is 30.2 µM; with RPMI-8226 leukemia, 29.4 µM; with NCI-H226 lung, 19.5 µM; in the assay with BT-549 breast, > 80.5 µM; in the assay with SF-295 CNS, > 100 µM; with UO-31 renal, 29.6 µM. Besides, the results for the TGI in the assay with NCI-H460 lung, in the assay with MDA-MB-231 breast and in the assay on OVCAR-3 ovarian were 37.8 µM, > 100 µM and 54.5 µM, respectively.
For `Cc1cnc2[nH]c(-c3cccc4ccccc34)cc(=O)c2c1`, the GI50 with UACC-257 melanoma is 15 µM; in the assay with SF-268 CNS, 6.51 µM; with MDA-MB-231 breast it was 11.9 nM. Further, the TGI in the assay on UACC-257 melanoma was > 100 µM; in the assay on HT29 colon it was 0.0121 µM and 0.0273 µM; with MALME-3M melanoma, 0.000989 µM; with SF-268 CNS it was > 100 µM; with OVCAR-4 ovarian, > 100 µM; with MDA-MB-435, 0.000499 µM. The TGI in the assay with M14 melanoma was > 100 µM; in the assay on NCI-H522 lung, 0.00072 µM; in the assay with RPMI-8226 leukemia, 28.2 µM; with NCI-H226 lung, 59.9 µM; in the assay on BT-549 breast it was > 100 µM; with SF-295 CNS it was > 100 µM. Further, the TGI in the assay with UO-31 renal was 34 µM; with NCI-H460 lung, > 100 µM.
Consider `CCOC(=O)c1cn(-c2ccc([N+](=O)[O-])cc2)c(=S)n2c1nc1ccccc12`, for which the TGI in the assay with UACC-257 melanoma, in the assay on HT29 colon, with OVCAR-4 ovarian, with MDA-MB-435, in the assay with M14 melanoma and in the assay on SF-539 CNS was > 100 µM throughout. The TGI was > 100 µM with RPMI-8226 leukemia; > 100 µM in the assay with NCI-H226 lung; > 100 µM in the assay with BT-549 breast; > 100 µM in the assay with SF-295 CNS; 4.64 µM in the assay with UO-31 renal; > 100 µM in the assay on NCI-H460 lung. The TGI in the assay on MDA-MB-231 breast and with OVCAR-3 ovarian was > 100 µM in each case.
